According to patent US10913727B2, “Modulators of the integrated stress pathway” (Calico Life Sciences LLC, priority 2016, dated 2021):
pEC50: −log10 of the molar value.

System: HEK293T cells carrying the ATF4 luciferase reporter
Assay: ATF4-Luc assay, in vitro model of Vanishing Cell White Matter Disease (VWMD)
Format: cell-based
Conditions: Homo sapiens, HEK-293T, 1 μg/mL tunicamycin, 7 hours, One Glo luminescence
In short: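 Compound at 200 nM and tunicamycin at 1 μg/mL were given together for 7 h to HEK293T cells stably transduced with an ATF4 5′-UTR-driven firefly luciferase reporter. Read-out by luminescence, reported as EC50.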

Row | SMILES | pEC50
1 | O=C(COc1ccc(Cl)c(F)c1)NC12CCC(NC(=O)c3ccccn3)(CC1)C(O)C2 (stereo not drawn) [Compound 167, N-{4-[2-(4-chloro-3-fluorophenoxy)acetamido]-2-hydroxybicyclo[2.2.2]octan-1-yl}pyridine-2-carboxamide] | 6.60 to 7.30
2 | O=C(COc1ccc(Cl)c(F)c1)NC12CC(NC(=O)c3ccc(C(F)F)nc3)(C1)C2 [Compound 207, N-{3-[2-(4-chloro-3-fluorophenoxy)acetamido]bicyclo[1.1.1]pentan-1-yl}-6-(difluoromethyl)pyridine-3-carboxamide] | 6.60 to 7.30
3 | O=C(COc1ccc(Cl)c(F)c1)NC12CC(NC(=O)c3c[nH]c4ccccc34)(C1)C2 [Compound 313, N-{3-[2-(4-chloro-3-fluorophenoxy)acetamido]bicyclo[1.1.1]pentan-1-yl}-1H-indole-3-carboxamide] | 6.60 to 7.30
4 | O=C(COc1ccc(Cl)c(F)c1)NC12CCC(NC(=O)c3cc(Cl)no3)(CC1)CC2O (stereo not drawn) [Compound 414, 3-chloro-N-{4-[2-(4-chloro-3-fluorophenoxy)acetamido]-3-hydroxybicyclo[2.2.2]octan-1-yl}-1,2-oxazole-5-carboxamide] | 6.60 to 7.30
5 | O=C(COc1ccc(Cl)c(F)c1)NC12CC(NC(=O)c3ccc(N4CCCC4)cn3)(C1)C2 [Compound 123, N-{3-[2-(4-chloro-3-fluorophenoxy)acetamido]bicyclo[1.1.1]pentan-1-yl}-5-(pyrrolidin-1-yl)pyridine-2-carboxamide] | 6.00 to 6.60
6 | COc1cc(C(=O)NC23CC(NC(=O)COc4ccc(Cl)c(F)c4)(C2)C3)ccc1F [Compound 531, N-{3-[2-(4-chloro-3-fluorophenoxy)acetamido]bicyclo[1.1.1]pentan-1-yl}-4-fluoro-3-methoxybenzamide] | 5.70 to 6.00
7 | COc1c(F)cccc1C(=O)NC12CC(NC(=O)COc3ccc(Cl)c(F)c3)(C1)C2 [Compound 547, N-{3-[2-(4-chloro-3-fluorophenoxy)acetamido]bicyclo[1.1.1]pentan-1-yl}-3-fluoro-2-methoxybenzamide] | 5.70 to 6.00
8 | Cn1ccc(C(=O)NC23CC(NC(=O)COc4ccc(Cl)c(Cl)c4)(C2)C3)n1 [Compound 713, N-{3-[2-(3,4-dichlorophenoxy)acetamido]bicyclo[1.1.1]pentan-1-yl}-1-methyl-1H-pyrazole-3-carboxamide] | 6.60 to 7.30
9 | O=C(COc1ccc(Cl)c(F)c1)NC12CC(NC(=O)c3cnc4ccccc4n3)(C1)C2 [Compound 482, N-{3-[2-(4-chloro-3-fluorophenoxy)acetamido]bicyclo[1.1.1]pentan-1-yl}quinoxaline-2-carboxamide] | > 7.30
10 | COCc1cccc(C(=O)NC23CC(NC(=O)COc4ccc(Cl)c(F)c4)(C2)C3)n1 [Compound 174, N-{3-[2-(4-chloro-3-fluorophenoxy)acetamido]bicyclo[1.1.1]pentan-1-yl}-6-(methoxymethyl)pyridine-2-carboxamide] | 6.00 to 6.60
11 | O=C(COc1ccc(Cl)c(F)c1)NC12CC(Nc3nnc(-c4ccc(Cl)cc4)o3)(C1)C2 [Compound 421, 2-(4-chloro-3-fluorophenoxy)-N-(3-{[5-(4-chlorophenyl)-1,3,4-oxadiazol-2-yl]amino}bicyclo[1.1.1]pentan-1-yl)acetamide] | 6.00 to 6.60
12 | O=C(COc1ccc(Cl)c(Cl)c1)NC12CC(Nc3cnc(C(F)(F)F)cn3)(C1)C2 [Compound 101, 2-(3,4-dichlorophenoxy)-N-(3-{[5-(trifluoromethyl)pyrazin-2-yl]amino}bicyclo-[1.1.1]pentan-1-yl)acetamide] | < 5.70
13 | O=C(COc1ccc(Cl)c(F)c1)NC12CC(NC(=O)c3ccc4c(c3)OCO4)(C1)C2 [Compound 239, N-{3-[2-(4-chloro-3-fluorophenoxy)acetamido]bicyclo[1.1.1]pentan-1-yl}-2H-1,3-benzodioxole-5-carboxamide] | 6.60 to 7.30
14 | CN(C(=O)COc1ccc(Cl)c(F)c1)C12CC(N(C)C(=O)c3cnc(C(F)F)cn3)(C1)C2 [Compound 362, N-(3-{[(4-chloro-3-fluorophenoxy)acetyl](methyl)amino}bicyclo[1.1.1]pentan-1-yl)-5-(difluoromethyl)-N-methylpyrazine-2-carboxamide] | < 5.70
15 | Cc1nc(C(=O)NC23CCC(NC(=O)COc4ccc(Cl)c(F)c4)(CC2)[C@@H](O)C3)cs1 [Compound 572, N-{(3S)-4-[2-(4-chloro-3-fluorophenoxy)acetamido]-3-hydroxybicyclo[2.2.2]octan-1-yl}-2-methyl-1,3-thiazole-4-carboxamide] | 6.60 to 7.30
16 | O=C(COc1ccc(F)c(F)c1)NC12CCC(NC(=O)c3ccc(C(F)(F)F)cn3)(CC1)C(O)C2 (stereo not drawn) [Compound 349, N-{4-[2-(3,4-difluorophenoxy)acetamido]-2-hydroxybicyclo[2.2.2]octan-1-yl}-5-(trifluoromethyl)pyridine-2-carboxamide] | 6.00 to 6.60
17 | Cc1cc(C(=O)N(C)C23CCC(NC(=O)COc4ccc(Cl)c(F)c4)(CC2)[C@@H](O)C3)on1 [Compound 706, N-{(3S)-4-[2-(4-chloro-3-fluorophenoxy)acetamido]-3-hydroxybicyclo[2.2.2]octan-1-yl}-N,3-dimethyl-1,2-oxazole-5-carboxamide] | > 7.30
18 | Cc1cc(C(=O)NC23CCC(NC(=O)COc4ccc(Cl)c(F)c4)(CC2)C(O)C3)sn1 (stereo not drawn) [Compound 578, N-{4-[2-(4-chloro-3-fluorophenoxy)acetamido]-3-hydroxybicyclo[2.2.2]octan-1-yl}-3-methyl-1,2-thiazole-5-carboxamide] | > 7.30
19 | O=C(COc1ccc(Cl)c(F)c1)NC12CC(NC(=O)c3ccc(-c4ccccc4)cn3)(C1)C2 [Compound 928, N-{3-[2-(4-chloro-3-fluorophenoxy)acetamido]bicyclo[1.1.1]pentan-1-yl}-5-phenylpyridine-2-carboxamide] | 6.60 to 7.30
20 | CCOc1ncccc1C(=O)NC12CC(NC(=O)COc3ccc(Cl)c(F)c3)(C1)C2 [Compound 861, N-{3-[2-(4-chloro-3-fluorophenoxy)acetamido]bicyclo[1.1.1]pentan-1-yl}-2-ethoxypyridine-3-carboxamide] | < 5.70
21 | CCOc1cc(C)nc(NC23CC(NC(=O)COc4ccc(Cl)c(F)c4)(C2)C3)n1 [Compound 383, 2-(4-chloro-3-fluorophenoxy)-N-{3-[(4-ethoxy-6-methylpyrimidin-2-yl)amino]bicyclo[1.1.1]pentan-1-yl}acetamide] | < 5.70
22 | Cc1nc(C(=O)NC23CC(NC(=O)COc4ccc(Cl)c(Cl)c4)(C2)C3)cs1 [Compound 559, N-{3-[2-(3,4-dichlorophenoxy)acetamido]bicyclo[1.1.1]pentan-1-yl}-2-methyl-1,3-thiazole-4-carboxamide] | > 7.30
23 | Cc1csc(C(=O)NC23CC(NC(=O)COc4ccc(Cl)c(F)c4)(C2)C3)n1 [Compound 450, N-{3-[2-(4-chloro-3-fluorophenoxy)acetamido]bicyclo[1.1.1]pentan-1-yl}-4-methyl-1,3-thiazole-2-carboxamide] | 6.60 to 7.30
24 | O=C(COc1ccc(Cl)c(F)c1)NC12CCC(NC(=O)c3ccc(N4CCCC4)cn3)(CC1)CC2O (stereo not drawn) [Compound 940, N-{4-[2-(4-chloro-3-fluorophenoxy)acetamido]-3-hydroxybicyclo[2.2.2]octan-1-yl}-5-(pyrrolidin-1-yl)pyridine-2-carboxamide] | 6.60 to 7.30
